The record followed here is patent US20240226175A1, “THERAPEUTIC AGENT USING GENOME-EDITED PLURIPOTENT STEM CELL” (KEIO UNIVERSITY, priority 2020, published 2024).

Common to all, as to type: cell-based, human
One data set has as its system glioma cell line U87. Kind of data set: Antitumor effect in co-culture with 5-FC (CCK-8), U87. Particulars: without TSC1/TSC2. The procedure:
(§1) Glioma cell line U87 (1×10^4 cells) or glioma stem cell line hG008 (1×10^4 cells) and TSC1 or TSC2 (5×10^3 cells) were co-cultured for 1 day using a low adhesive 96-well culture plate (Prime Surface 96V, manufactured by Sumitomo Bakelite Co., Ltd.), then 5-FC (2 μg/ml) was added, and cell deaths were assessed using a cell proliferation/cytotoxicity assay kit Cell Counting Kit-8 (CCK-8) 5 days later.

The test system of data set [1] is glioma stem cell line hG008. In words: Antitumor effect in co-culture with 5-FC (CCK-8), hG008. The settings on record: without TSC1/TSC2. As to the method:
as §1

Another data set deals with (yCD-NSCs). In words: Response of yCD-NSCs to 5-FU. The settings on record: ACTB (yCD-NSCs).

SMILES strings stand for the structures.

For the compound `Nc1nc(=O)[nH]cc1F` [5-FC, 5-fluorocytosine], the “tumor cell death with 5-FC alone” value (with glioma cell line U87; in data set [1]) was “no particular tumor cell death was observed” each time.
For the compound `O=c1[nH]cc(F)c(=O)[nH]1` [5-FU, 5-fluorouracil], the “response to 5-FU” value in the data set with (yCD-NSCs) is reported as “not favorable”.
